The structures appear in SMILES notation. “And” between values parts separate entries of the source, which are not always exact repeats. Equal values may be shown once. Toxic doses and inconclusive results are not listed.

The test system of this assay is P388 leukemia ip, CD2F1 mice, survival T/C. Briefly: NCI In Vivo Anticancer Drug Screen. Data for tumor model P388 Leukemia (intraperitoneal) in CD2F1 (CDF1) mice. The note with it: endpoint: median survival time, higher = longer survival. Put shortly: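 Mice carrying the transplanted tumor received test compound or vehicle. Survival was recorded in each group, and the value is the treated-group measurement divided by that of the vehicle-treated control group.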

Setting [1] is: dose: 25.0 mg/kg/injection, schedule: Q04DX003 (ip), vehicle: saline with Tween-80.
[2] abbreviates: dose: 50.0 mg/kg/injection, schedule: Q04DX003 (ip), vehicle: saline with Tween-80.
Setting [3] is: dose: 50.0 mg/kg/injection, schedule: Q01DX009 (ip), vehicle: saline with Tween-80.
The mark [4] stands for this setting: dose: 100.0 mg/kg/injection, schedule: Q01DX009 (ip), vehicle: saline with Tween-80.
Setting [5] is: dose: 100.0 mg/kg/injection, schedule: Q01DX001 (ip), vehicle: Klucel (hydroxypropylcellulose) (HPC).
[6] abbreviates: dose: 200.0 mg/kg/injection, schedule: Q01DX001 (ip), vehicle: Klucel (hydroxypropylcellulose) (HPC).
[7] abbreviates: dose: 50.0 mg/kg/injection, schedule: Q01DX005 (ip), vehicle: saline.
Setting [8] is: dose: 100.0 mg/kg/injection, schedule: Q01DX009 (ip), vehicle: Klucel (hydroxypropylcellulose) (HPC).
The mark [9] stands for this setting: dose: 200.0 mg/kg/injection, schedule: Q01DX009 (ip), vehicle: Klucel (hydroxypropylcellulose) (HPC).
Where [10] appears, read: dose: 50.0 mg/kg/injection, schedule: Q01DX009 (ip), vehicle: saline.
[11] abbreviates: dose: 100.0 mg/kg/injection, schedule: Q01DX009 (ip), vehicle: saline.
[12] abbreviates: dose: 50.0 mg/kg/injection, schedule: Q01DX005 (ip), vehicle: Klucel (hydroxypropylcellulose) (HPC).
The mark [13] stands for this setting: dose: 100.0 mg/kg/injection, schedule: Q01DX005 (ip), vehicle: Klucel (hydroxypropylcellulose) (HPC).
Setting [14] is: dose: 200.0 mg/kg/injection, schedule: Q01DX005 (ip), vehicle: Klucel (hydroxypropylcellulose) (HPC).
[15] abbreviates: dose: 12.5 mg/kg/injection, schedule: Q01DX005 (ip), vehicle: Klucel (hydroxypropylcellulose) (HPC).
Where [16] appears, read: dose: 25.0 mg/kg/injection, schedule: Q01DX005 (ip), vehicle: Klucel (hydroxypropylcellulose) (HPC).
[17] abbreviates: dose: 50.0 mg/kg/injection, schedule: Q01DX005 (ip), vehicle: saline with Tween-80.
Setting [18] is: dose: 100.0 mg/kg/injection, schedule: Q01DX005 (ip), vehicle: saline with Tween-80.

Regarding `NC(=S)N/N=C\c1ncnc2ccccc12`, the T/C (dose: 1.0 mg/kg/injection, schedule: Q01DX009 (ip), vehicle: saline with Tween-80) was 104 % of control; the T/C (dose: 2.0 mg/kg/injection, schedule: Q01DX009 (ip), vehicle: saline with Tween-80) is 118 % of control; the T/C (dose: 4.0 mg/kg/injection, schedule: Q01DX009 (ip), vehicle: saline with Tween-80) is 100 % of control; the T/C (dose: 12.0 mg/kg/injection, schedule: Q01DX009 (ip), vehicle: saline with Tween-80) is 154 % of control; the T/C (dose: 12.5 mg/kg/injection, schedule: Q01DX009 (ip), vehicle: saline with Tween-80) is 150 % of control; the T/C (dose: 12.5 mg/kg/injection, schedule: Q04DX003 (ip), vehicle: saline with Tween-80) is 112 % of control. In addition, the T/C was 172 % of control (dose: 18.0 mg/kg/injection, schedule: Q01DX009 (ip), vehicle: saline with Tween-80); 116 % of control under setting [1]; 120 % of control under setting [2].

As for `CC(=O)OCc1ccc(Cl)cc1`, the T/C under setting [3] is 99 % of control; the T/C (dose: 50.0 mg/kg/injection, schedule: Q04DX003 (ip), vehicle: saline) was 100 % of control; the T/C under setting [4] was 99 % of control; the T/C (dose: 100.0 mg/kg/injection, schedule: Q04DX003 (ip), vehicle: saline) was 104 % of control; the T/C (dose: 200.0 mg/kg/injection, schedule: Q01DX009 (ip), vehicle: saline with Tween-80) was 114 % of control; the T/C (dose: 200.0 mg/kg/injection, schedule: Q04DX003 (ip), vehicle: saline) is 113 % of control. Besides, the T/C (dose: 400.0 mg/kg/injection, schedule: Q01DX009 (ip), vehicle: saline with Tween-80) was 123 % of control.

Consider `CC(C)CC1NC(CC(C)C)N2C(CC(C)C)N12` (stereo unspecified), for which the T/C was 103 % of control under setting [5]; 103 % of control under setting [6]; 99 % of control (dose: 400.0 mg/kg/injection, schedule: Q01DX001 (ip), vehicle: Klucel (hydroxypropylcellulose) (HPC)).

Turning to `CCCNCc1cccc2ccnc(C)c12`, the T/C runs as follows: under setting [7], 109 % of control; (dose: 100.0 mg/kg/injection, schedule: Q01DX005 (ip), vehicle: saline) 104 % of control; (dose: 200.0 mg/kg/injection, schedule: Q01DX005 (ip), vehicle: saline) 101 % of control.

Regarding `CCN1C(=O)c2cccc([N+](=O)[O-])c2C1=O`, the T/C is 101 % of control under setting [8] and 104 % of control under setting [9].

As for `Nc1nc[nH]c1-c1noc(=O)[nH]1`, the T/C is, setting by setting: (dose: 12.5 mg/kg/injection, schedule: Q01DX009 (ip), vehicle: saline) 102 % of control; (dose: 25.0 mg/kg/injection, schedule: Q01DX009 (ip), vehicle: saline) 108 % of control; under setting [10], 104 % of control and 112 % of control; under setting [11], 110 % of control.

Regarding `C[C@]12C=C[C@@]3(CC[C@@H]4[C@](C)(CO)[C@H](O)CC[C@@]4(C)[C@@H]3CC1)C2`, the T/C reads like this: (dose: 3.5 mg/kg/injection, schedule: Q01DX005 (ip), vehicle: Klucel (hydroxypropylcellulose) (HPC)) 89 % of control; (dose: 7.0 mg/kg/injection, schedule: Q01DX005 (ip), vehicle: Klucel (hydroxypropylcellulose) (HPC)) 100 % of control; (dose: 14.0 mg/kg/injection, schedule: Q01DX005 (ip), vehicle: Klucel (hydroxypropylcellulose) (HPC)) 92 % of control; (dose: 28.0 mg/kg/injection, schedule: Q01DX005 (ip), vehicle: Klucel (hydroxypropylcellulose) (HPC)) 96 % of control.

For `C=CCC(NC(=O)CCl)C(=O)O` (stereo unspecified), the T/C is 92 % of control under setting [10] and 90 % of control under setting [11].

Consider `O=C1CCc2cc([N+](=O)[O-])cc3c2N1CCC3`, for which the T/C under setting [12] is 95 % of control and 96 % of control; the T/C under setting [13] was 104 % of control; the T/C under setting [14] was 98 % of control and 96 % of control.

For `COc1cc2c(cc1C1COc3cc4occc4cc3C1=O)OCO2` (stereo unspecified), the T/C is, setting by setting: under setting [15], 97 % of control; under setting [16], 95 % of control; under setting [12], 92 % of control; under setting [13], 95 % of control; under setting [14], 95 % of control.

Turning to `CCOC(=O)C1C2CCCCC21OC` (stereo unspecified), the T/C (dose: 60.0 mg/kg/injection, schedule: Q01DX005 (ip), vehicle: saline with Tween-80) is 106 % of control; the T/C (dose: 120.0 mg/kg/injection, schedule: Q01DX005 (ip), vehicle: saline with Tween-80) is 107 % of control; the T/C (dose: 240.0 mg/kg/injection, schedule: Q01DX005 (ip), vehicle: saline with Tween-80) was 110 % of control.

Consider `CCOC(=O)C1=C(/C=C/c2cccc(Cl)c2)O/C(=C/c2cccc(Cl)c2)C1=O`, for which the T/C by setting is: under setting [17], 87 % of control; under setting [18], 96 % of control; (dose: 200.0 mg/kg/injection, schedule: Q01DX005 (ip), vehicle: saline with Tween-80) 106 % of control.

In the case of `COS(=O)(=O)OC1(SC)C=C(c2ccccc2)SS1` (stereo unspecified), the T/C is, setting by setting: (dose: 12.5 mg/kg/injection, schedule: Q01DX001 (ip), vehicle: saline) 96 % of control; (dose: 25.0 mg/kg/injection, schedule: Q01DX001 (ip), vehicle: saline) 109 % of control and 121 % of control; (dose: 50.0 mg/kg/injection, schedule: Q01DX001 (ip), vehicle: saline) 118 % of control and 122 % of control.

With `COc1ccc(S(=O)(=O)N2OC2c2ccccc2)cc1` (stereo unspecified), the T/C is 100 % of control (dose: 50.0 mg/kg/injection, schedule: Q01DX009 (ip), vehicle: Klucel (hydroxypropylcellulose) (HPC)) and 100 % of control under setting [8].

Turning to `CCCOc1cc2c(cc1C(C)(C)c1ccccc1)OCO2`, the T/C by setting is: under setting [17], 95 % of control; under setting [18], 100 % of control.

In the case of `O=C([O][Sn]([O]C(=O)c1ccccc1)([c]1ccccc1)[c]1ccccc1)c1ccccc1`, the T/C by setting is: (dose: 3.12 mg/kg/injection, schedule: Q01DX005 (ip), vehicle: Klucel (hydroxypropylcellulose) (HPC)) 111 % of control; (dose: 6.25 mg/kg/injection, schedule: Q01DX005 (ip), vehicle: Klucel (hydroxypropylcellulose) (HPC)) 116 % of control and 123 % of control; under setting [15], 111 % of control and 123 % of control; under setting [16], 151 % of control.

Regarding `COC(/C=N/OC(C)=O)c1ccccc1` (stereo unspecified), the T/C under setting [1] is 98 % of control and 99 % of control; the T/C under setting [2] is 102 % of control and 92 % of control.

Consider `COc1ccc(OC)c(NC(=O)NC(c2ccccc2)c2ccccc2)c1`, for which the T/C was 96 % of control (dose: 3.12 mg/kg/injection, schedule: Q01DX009 (ip), vehicle: Klucel (hydroxypropylcellulose) (HPC)); 90 % of control (dose: 6.25 mg/kg/injection, schedule: Q01DX009 (ip), vehicle: Klucel (hydroxypropylcellulose) (HPC)); 93 % of control under setting [9].

For `O=C(O)C(Cc1ccccc1)N=Cc1ccc(O)cc1` (stereo unspecified), the T/C is, setting by setting: (dose: 100.0 mg/kg/injection, schedule: Q04DX003 (ip), vehicle: saline with Tween-80) 102 % of control; (dose: 200.0 mg/kg/injection, schedule: Q04DX003 (ip), vehicle: saline with Tween-80) 106 % of control; (dose: 400.0 mg/kg/injection, schedule: Q04DX003 (ip), vehicle: saline with Tween-80) 97 % of control.

Take `O=c1[nH][nH]c(=O)n1/N=C\c1ccccc1O`: the T/C (dose: 50.0 mg/kg/injection, schedule: Q01DX001 (ip), vehicle: Klucel (hydroxypropylcellulose) (HPC)) was 100 % of control; the T/C under setting [5] was 104 % of control; the T/C under setting [6] was 98 % of control.

As for `Clc1ccc(CC(Cn2ccnc2)c2ccccc2Cl)cc1` (stereo unspecified), the T/C reads like this: under setting [3], 94 % of control; under setting [4], 86 % of control.

As for `CC[N+]1=C(C2=NCCc3ccccc32)c2ccccc2CC1`, the T/C is 104 % of control (dose: 12.5 mg/kg/injection, schedule: Q01DX005 (ip), vehicle: saline); 98 % of control (dose: 25.0 mg/kg/injection, schedule: Q01DX005 (ip), vehicle: saline); 92 % of control under setting [17]; 100 % of control under setting [7].

Source of the values: PubChem BioAssay AID330 (DTP/NCI, 2004).
